18 compounds from US20230131427A1, “FUNGICIDAL COMPOSITIONS” (SYNGENTA CROP PROTECTION AG, priority 2020, published 2023) can be followed below.

Read-outs that look alike come from different tables or passages of the source.

The test system of one test is Phakopsora pachyrhizi. In words: Example B5: preventative activity against Phakopsora pachyrhizi (soybean rust), whole soybean plants sprayed, leaf disks inoculated. The test is classed as in vivo. The settings on record: for inhibition at 22.5 g/ha / inhibition at 45 g/ha / inhibition at 90 g/ha / inhibition at 225 g/ha / inhibition at 450 g/ha / inhibition at 2.25 g/ha / inhibition at 4.5 g/ha / inhibition at 18 g/ha: Phakopsora pachyrhizi, foliar. Here is the method:
Whole soybean plants are treated with the recited active ingredients 4 weeks after planting. 1 day after spraying leaf disks are cut from the first trifoliate leaf. Five repetitions at each rate are conducted. The leaf disks are inoculated with Phakopsora pachyrhizi (Asian soybean rust) one day after treatment.
Evaluation of the leaf disks is conducted 11 to 14 days after inoculation and the activity is derived from the relation of the treated vs untreated, infested check (100=no disease, no damage to the leaf, 0=high infestation, leaf damaged heavily). The rates of the active ingredients used are given in the tables as g active ingredient (a.i.)/ha.

In the next test the test system is Septoria glycines. In words: Example B2: mixtures, preventative activity against Septoria glycines (brown spot), liquid culture. The test is classed as cell-based. The conditions noted are these: component B alone. From the text: (§1) This occurs whenever the action of an active ingredient combination is greater than the sum of the actions of the individual components. The action to be expected E for a given active ingredient combination obeys the so-called COLBY formula and can be calculated as follows (COLBY, S. R. “Calculating synergistic and antagonistic responses of herbicide combination”. Weeds, Vol. 15, pages 20-22; 1967):
(§2) If the action actually observed (O) is greater than the expected action (E), then the action of the combination is super-additive, i.e. there is a synergistic effect. In mathematical terms, synergism corresponds to a positive value for the difference of (O-E). In the case of purely complementary addition of activities (expected activity), said difference (O-E) is zero. A negative value of said difference (O-E) signals a loss of activity compared to the expected activity.
Conidia of the fungus harvested from a fresh culture grown on artificial media, were directly mixed into nutrient broth (PDB potato dextrose broth). A DMSO solution of the test compounds was placed into a microtiter plate (96-well format) and the nutrient broth containing the fungal spores was added to it.
(§3) Fungicidal activity was evaluated on a 100-0 scale (100=no disease growth; 0=well completely covered by mycelium).

Another test concerns Septoria tritici. As to the kind of experiment: Example B3: mixtures, preventative activity against Septoria tritici (leaf blotch), liquid culture. The test is classed as cell-based. The conditions noted are these: component B alone.
Excerpt: as §1, §2
(§4) Conidia of the fungus from cryogenic storage were directly mixed into nutrient broth (PDB potato dextrose broth). A DMSO solution of the test compounds was placed into a microtiter plate (96-well format) and the nutrient broth containing the fungal spores was added to it.
as §3

Test [1] relates to Glomerella lagenarium syn. Colletotrichum lagenarium. In words: Example B1: mixtures, preventative activity against Glomerella lagenarium syn. Colletotrichum lagenarium, liquid culture. The test is classed as cell-based. The settings on record: component B alone.
Excerpt: as §1, §2, §4, §3

Setting [2] is: active ingredient alone, 22.5 g/ha, read-out: Observed Activity (%) (% of untreated).
Setting [3] is: active ingredient alone, 45 g/ha, read-out: Observed Activity (%) (% of untreated).
Setting [4] is: active ingredient alone, 90 g/ha, read-out: Observed Activity (%) (% of untreated).
Where [5] appears, read: applied alone, 22.5 g/ha, read-out: Observed Activity (% of untreated) against Phakopsora pachyrhizi.
Where [6] appears, read: applied alone, 45 g/ha, read-out: Observed Activity (% of untreated) against Phakopsora pachyrhizi.
Setting [7] is: applied alone, 90 g/ha, read-out: Observed Activity (% of untreated) against Phakopsora pachyrhizi.
The mark [8] stands for this setting: read-out: Observed Activity (% of untreated) against Phakopsora pachyrhizi.
Where [9] appears, read: read-out: Observed Activity (%) (% of untreated) against Phakopsora pachyrhizi.
[10] abbreviates: Septoria glycines, 0.1 ppm, 100-0 scale, read-out: Activity (%) B.
The mark [11] stands for this setting: Septoria glycines, 0.3 ppm, 100-0 scale.
The mark [12] stands for this setting: Zymoseptoria tritici, 0.1 ppm, 100-0 scale, read-out: Activity (%) B.

On to `CC1COC(Cn2cncn2)(c2ccc(Oc3ccc(Cl)cc3)cc2Cl)O1` (stereo not drawn) [Difenoconazole], for which the inhibition at 22.5 g/ha in the test on Phakopsora pachyrhizi (setting [2]) and with Phakopsora pachyrhizi (setting [5]) was 3% in each case. The inhibition at 45 g/ha with Phakopsora pachyrhizi (setting [3]) and in the test on Phakopsora pachyrhizi (setting [6]) was 10% each time. The inhibition at 90 g/ha in the test on Phakopsora pachyrhizi (setting [4]) and with Phakopsora pachyrhizi (setting [7]) was 24% in each case.
On to `CC(Cc1ccc(C(C)(C)C)cc1)CN1CCCCC1` (stereo not drawn) [Fenpropidin], for which the inhibition at 225 g/ha in the test with Phakopsora pachyrhizi (applied alone, 225 g/ha, read-out: Observed Activity (% of untreated) against Phakopsora pachyrhizi) came to 72%; with Phakopsora pachyrhizi (applied alone, 225 g/ha, read-out: Observed Activity (%) (% of untreated) against Phakopsora pachyrhizi), 72%. Moreover, the inhibition at 450 g/ha stood at 77% in the test on Phakopsora pachyrhizi (applied alone, 450 g/ha, read-out: Observed Activity (% of untreated) against Phakopsora pachyrhizi) and 77% in the test on Phakopsora pachyrhizi (applied alone, 450 g/ha, read-out: Observed Activity (%) (% of untreated) against Phakopsora pachyrhizi).
Turning to `O=C(O)CNCP(=O)(O)O` [Glyphosate], the inhibition at 45 g/ha in the test on Phakopsora pachyrhizi (setting [8]) and in the test on Phakopsora pachyrhizi (setting [9]) was 1% throughout. Further, the inhibition at 90 g/ha in the test on Phakopsora pachyrhizi (setting [8]) and with Phakopsora pachyrhizi (setting [9]) was 0% each time.
In the case of `CC(C)c1ccc(Cl)cc1CN(C(=O)c1c(C(F)F)nn(C)c1F)C1CC1` [Isoflucypram], the “Observed Activity (% of untreated) against Phakopsora pachyrhizi” value (shortened to “Observed Activity (% of untreated)”) in the test with Phakopsora pachyrhizi (applied alone, 2.25 g/ha) is listed as 2%; with Phakopsora pachyrhizi (applied alone, 4.5 g/ha), 1%; in the test on Phakopsora pachyrhizi (applied alone, 9 g/ha), 0%.
Consider `O=C(Nc1ccccc1F)c1ccc(-c2noc(C(F)(F)F)n2)cc1` [N-(2-fluorophenyl)-4-[5-(trifluoromethyl)-1,2,4-oxadiazol-3-yl]benzamide], for which the inhibition at 10 ppm with Septoria glycines (Septoria glycines) was determined as 0%; in the test on Septoria glycines (Septoria glycines, 100-0 scale), 0%; in the test with Septoria tritici (Zymoseptoria tritici, 72 h, 10 ppm) it was 0%. Besides, the inhibition at 20 ppm with Septoria glycines (Septoria glycines) is 0%; in the test with Septoria glycines (Septoria glycines, 100-0 scale) it was 0%; in the test with Septoria tritici (Zymoseptoria tritici, 72 h, 20 ppm), 0%.
For the compound `CCC(=O)Oc1c(OC)ccnc1C(=O)N[C@@H](C)C(=O)O[C@@H](C)[C@@H](C)c1ccccc1C` [[(1S,2S)-1-methyl-2-(o-tolyl)propyl](2S)-2-[(4-methoxy-3-propanoyloxy-pyridine-2-carbonyl)amino]propanoate, reference compound], the inhibition at 0.03 ppm is 0% in the test on Septoria glycines (Septoria glycines, 0.03 ppm, 100-0 scale, read-out: Activity (%) B) and 50% with Septoria tritici (Zymoseptoria tritici, 72 h, 0.03 ppm, 72 hrs, read-out: Activity (%) B). For the same compound, the inhibition at 0.06 ppm with Septoria glycines (Septoria glycines, 0.06 ppm, 100-0 scale) amounted to 0%; in the test on Septoria tritici (Zymoseptoria tritici, 72 h, 0.06 ppm), 70%.
Regarding `COc1ccnc(C(=O)N[C@@H](C)C(=O)O[C@@H](C)[C@H](c2ccc(F)cc2C)C(C)C)c1OCOC(C)=O` [[(1S,2S)-2-(4-fluoro-2-methyl-phenyl)-1,3-dimethyl-butyl](2S)-2-[[3-(acetoxymethoxy)-4-methoxy-pyridine-2-carbonyl]amino]propanoate], the inhibition at 0.1 ppm in test [1] (Colletotrichum orbiculare, 0.1 ppm, read-out: Activity (%) B) stood at 20%. The inhibition at 0.3 ppm in test [1] (Colletotrichum orbiculare, 0.3 ppm, read-out: Activity (%) B) was found to be 70%.
As to `CO/C=C(/C(=O)OC)c1ccccc1Oc1cc(Oc2ccccc2C#N)ncn1` [azoxystrobin, reference compound], the “Observed Activity (%) (% of untreated)” value is 0% in the test on Phakopsora pachyrhizi (active ingredient alone, 2.25 g/ha); 15% in the test with Phakopsora pachyrhizi (active ingredient alone, 4.5 g/ha); 23% in the test with Phakopsora pachyrhizi (active ingredient alone, 9 g/ha); 9% with Phakopsora pachyrhizi (active ingredient alone, 18 g/ha). Moreover, the “Observed Activity (% of untreated)” value in the test on Phakopsora pachyrhizi (applied alone, 2.25 g/ha) worked out at 0%; in the test on Phakopsora pachyrhizi (applied alone, 4.5 g/ha), 15%; with Phakopsora pachyrhizi (applied alone, 9 g/ha), 23%; with Phakopsora pachyrhizi (applied alone, 18 g/ha) it was 9%.
Turning to `CC(C1CC1)C(O)(Cn1cncn1)c1ccc(Cl)cc1` (stereo not drawn) [cyproconazole, reference compound], the inhibition at 0.1 ppm in the test on Septoria glycines (setting [10]) is 50%; in the test on Septoria tritici (Zymoseptoria tritici, 72 h, 0.1 ppm, 72 hrs, 100=no disease growth, read-out: Activity (%) B) it was 20%; with Septoria tritici (setting [12]) it was 20%. Moreover, the inhibition at 0.3 ppm in the test on Septoria glycines (Septoria glycines, 0.3 ppm) stood at 70%; with Septoria glycines (setting [11]), 70%; with Septoria tritici (Zymoseptoria tritici, 72 h, 0.3 ppm, 72 hrs, read-out: Activity (%) B), 50%. Moreover, the inhibition at 22.5 g/ha in the test on Phakopsora pachyrhizi (setting [2]) and in the test on Phakopsora pachyrhizi (setting [5]) was 15% each time. The inhibition at 45 g/ha in the test with Phakopsora pachyrhizi (setting [3]) and with Phakopsora pachyrhizi (setting [6]) was 69% in each case. Besides, the inhibition at 90 g/ha in the test with Phakopsora pachyrhizi (setting [4]) and in the test on Phakopsora pachyrhizi (setting [7]) was 84% in each case.
On to `CC(Cc1ccc(C(C)(C)C)cc1)CN1CCCCC1` (stereo not drawn) [fenpropidin], for which the inhibition at 0.1 ppm in the test on Septoria tritici (setting [12]) worked out at 0%. The inhibition at 0.3 ppm with Septoria tritici (Zymoseptoria tritici, 0.3 ppm, 100-0 scale, read-out: Activity (%) B) was determined as 0%.
Consider `CC(Cc1ccc(C(C)(C)C)cc1)CN1C[C@@H](C)O[C@@H](C)C1` (stereo partly drawn) [fenpropimorph], for which the inhibition at 0.1 ppm was found to be 20% with Septoria glycines (setting [10]) and 20% in the test with Septoria glycines (Septoria glycines, 0.1 ppm, read-out: Activity (%) B). The inhibition at 0.3 ppm came to 50% with Septoria glycines (Septoria glycines, 0.3 ppm) and 50% in the test on Septoria glycines (setting [11]).
Turning to `OC(Cn1cncn1)(c1ccc(F)cc1)c1ccccc1F` (stereo not drawn) [flutriafol], the “Activity (%) B” value in the test with Septoria glycines (0.1 ppm) was 20%; in the test on Septoria glycines (0.3 ppm), 70%.
On to `CC(C)C1C2CCC1c1c(NC(=O)c3cn(C)nc3C(F)F)cccc12` (stereo not drawn) [isopyrazam], for which the “Activity (%) B” value with Septoria tritici (0.1 ppm, 100-0 scale) is 50%; in the test with Septoria tritici (0.1 ppm, 72 hrs, 100=no disease growth), 50%; in the test with Septoria tritici (0.3 ppm, 100-0 scale), 70%; with Septoria tritici (0.3 ppm, 72 hrs), 70%.
Turning to `CC(O)(Cn1cncn1)c1ccc(Oc2ccc(Cl)cc2)cc1C(F)(F)F` (stereo not drawn) [mefentrifluconazole, reference compound], in the test with Phakopsora pachyrhizi (applied alone, 22.5 g/ha), the “Observed Activity (% of untreated)” value is recorded as 1% and the “Observed Activity (%) (% of untreated) against Phakopsora pachyrhizi” value is given as 1%. In the test with Phakopsora pachyrhizi (applied alone, 45 g/ha), the “Observed Activity (% of untreated)” value is 20% and the “Observed Activity (%) (% of untreated) against Phakopsora pachyrhizi” value came to 20%.
For `CO/C=C(/C(=O)OC)c1ccccc1COc1cccc(C(F)(F)F)n1` [picoxystrobin], the “Activity (%) B” value in test [1] (0.1 ppm) and in test [1] (0.3 ppm) was 90% throughout.
On to `COC(=O)N(OC)c1ccccc1COc1ccn(-c2ccc(Cl)cc2)n1` [pyraclostrobin, reference compound], for which the inhibition at 2.25 g/ha amounted to 0% with Phakopsora pachyrhizi (active ingredient alone, 2.25 g/ha, read-out: Observed Activity (%) (% of untreated)) and 0% in the test on Phakopsora pachyrhizi (applied alone, 2.25 g/ha, read-out: Observed Activity (% of untreated) against Phakopsora pachyrhizi). Moreover, the inhibition at 4.5 g/ha in the test on Phakopsora pachyrhizi (active ingredient alone, 4.5 g/ha, read-out: Observed Activity (%) (% of untreated)) came out at 0%; in the test with Phakopsora pachyrhizi (applied alone, 4.5 g/ha, read-out: Observed Activity (% of untreated) against Phakopsora pachyrhizi), 0%. Moreover, the inhibition at 18 g/ha with Phakopsora pachyrhizi (active ingredient alone, 18 g/ha, read-out: Observed Activity (%) (% of untreated)) turned out to be 13%; in the test with Phakopsora pachyrhizi (applied alone, 18 g/ha, read-out: Observed Activity (% of untreated) against Phakopsora pachyrhizi) it was 13%. Further, the “Observed Activity (% of untreated)” value in the test on Phakopsora pachyrhizi (applied alone, 9 g/ha) is 1%.
For the compound `CC1(C)N=C(c2cnc3ccccc3c2)c2ccccc2C1(F)F` [quinofumelin], the “Activity (%) B” value is listed as 0% in the test on Septoria tritici (0.1 ppm, 100-0 scale) and 0% in the test with Septoria tritici (0.3 ppm, 100-0 scale).
As to Mancozeb, the “Observed Activity (% of untreated)” value is recorded as 20% with Phakopsora pachyrhizi (applied alone, 225 g/ha) and 34% in the test with Phakopsora pachyrhizi (applied alone, 450 g/ha).
